Assay results as given in patent US20240132431A1, “METHOD FOR ALKYLATING ACIDIC FUNCTIONAL GROUP” (Chugai Seiyaku Kabushiki Kaisha, priority 2021, published 2024).
Values belong to the molecule of their own block, whether it stands above or below them.

Molecular target: T1, Bcl-2 protein (Recombinant Human Bcl-2 Protein) (Homo sapiens, UniProt P10415)
T1 construct: purchased Novus NBP2-34889
Assay: Binding evaluation of mixture library compounds to Bcl-2 using AS-MS (affinity selection mass spectrometry)
Settings: for ASMS ratio (%) n = 1 / ASMS ratio (%) n = 2: ASMS Ratio(%)=(A−C)/B×100; for ASMS ratio (%) n = 1: replicate n = 1; for ASMS ratio (%) n = 2: replicate n = 2
In short: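 Readout is ASMS Ratio (%), (A−C)/B×100, from reversed-phase LC/MS of SEC-passed extracts, with protein-free unfiltered standard (B) and protein-free SEC blank (C). Recombinant human Bcl-2 at 20 μM final met ~1200 pooled compounds at […] each for 1 h, 23° C., dark, in Tris-HCl pH 7.4 buffer.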

[1] = AS-MS on the mixture of 1200 library compounds
[2] = AS-MS, mixture of 1200 compounds, Bcl-2

T1 sequence (P10415 whole entry): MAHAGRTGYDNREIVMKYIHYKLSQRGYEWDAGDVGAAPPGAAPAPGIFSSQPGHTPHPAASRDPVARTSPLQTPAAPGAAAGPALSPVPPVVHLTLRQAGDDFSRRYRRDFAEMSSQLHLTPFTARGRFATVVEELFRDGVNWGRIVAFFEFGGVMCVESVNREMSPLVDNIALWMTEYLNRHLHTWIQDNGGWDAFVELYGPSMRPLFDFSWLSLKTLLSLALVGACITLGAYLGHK

Molecule: CCOc1cccc(-c2cc(CN3CCN(c4ccc(C(=O)NS(C)(=O)=O)cc4)CC3)cc(OC(C)C)c2)c1 [B2I057-01, 4-[4-[[3-(3-Ethoxyphenyl)-5-propan-2-yloxyphenyl]methyl]piperazin-1-yl]-N-methylsulfonylbenzamide]
ASMS ratio (%) (n = 1): 0.0% | ASMS ratio (%) (n = 2): 0.0%

Molecule: 6-[4-[4-(3-Ethoxyphenyl)naphthalene-1-carbonyl]piperazin-1-yl]-N-propylpyridazine-3-carboxamide [B1M071-01]
ASMS ratio (%) n = 1 [2]: 34.0% | ASMS ratio (%) n = 2 [2]: 24.4%

Molecule: CCOc1cccc(-c2ccccc2CCC(=O)N2CCN(c3ccc(C(=O)NS(=O)(=O)CC45CC6CC(CC(C6)C4)C5)cc3)CC2)c1 [B2A033-01, N-(1-Adamantylmethylsulfonyl)-4-[4-[3-[2-(3-ethoxyphenyl)phenyl]propanoyl]piperazin-1-yl]benzamide]
ASMS ratio (%) n = 1 (AS-MS, mixture library, Bcl-2): 1.7% | ASMS ratio (%) n = 2 (AS-MS, mixture library, Bcl-2): −4.5%

Molecule: CCOc1cccc(-c2cc(OC)c(CN3CCN(c4ccc(C(=O)NS(=O)(=O)CC56CC7CC(CC(C7)C5)C6)cc4)CC3)c(OC)c2)c1 [B2A059-01, N-(1-Adamantylmethylsulfonyl)-4-[4-[[4-(3-ethoxyphenyl)-2,6-dimethoxyphenyl]methyl]piperazin-1-yl]benzamide]
ASMS ratio (%) n = 1 (AS-MS, mixture library, Bcl-2): 0.0% | ASMS ratio (%) n = 2 (AS-MS, mixture library, Bcl-2): −42.2%

Molecule: CCOc1cncc(-c2ccccc2CN2CCN(c3ccc(C(=O)NS(=O)(=O)CC45CC6CC(CC(C6)C4)C5)nn3)CC2)c1 [B2A072-01]
ASMS ratio (%) n = 1 (AS-MS, mixture library, Bcl-2): 12.2% | ASMS ratio (%) n = 2 (AS-MS, mixture library, Bcl-2): 14.7%

Molecule: CCOc1cccc(-c2ccc(C(=O)N3CCN(c4ccc(C(=O)NS(=O)(=O)CC56CC7CC(CC(C7)C5)C6)nn4)CC3)cc2C)c1 [B2A003-01, N-(1-Adamantylmethylsulfonyl)-6-[4-[4-(3-ethoxyphenyl)-3-methylbenzoyl]piperazin-1-yl]pyridazine-3-carboxamide]
ASMS ratio (%) n = 1 (AS-MS, mixture library, Bcl-2): 21.0% | ASMS ratio (%) n = 2 (AS-MS, mixture library, Bcl-2): 11.0%

Molecule: CCOc1cncc(-c2csc(CN3CCN(c4ccc(C(=O)NS(=O)(=O)CC56CC7CC(CC(C7)C5)C6)cc4)CC3)c2)c1 [B2A068-01, N-(1-Adamantylmethylsulfonyl)-4-[4-[[4-(5-ethoxypyridin-3-yl)thiophen-2-yl]methyl]piperazin-1-yl]benzamide]
ASMS ratio (%) n = 1 (AS-MS, mixture library, Bcl-2): 0.0% | ASMS ratio (%) n = 2 (AS-MS, mixture library, Bcl-2): 0.0%

Molecule: CCOc1cncc(-c2cc(CN3CCN(c4ccc(C(=O)NS(=O)(=O)CCC(F)(F)F)nn4)CC3)cc(OC(F)(F)F)c2)c1 [B2N090-01, 6-[4-[[3-(5-Ethoxypyridin-3-yl)-5-(trifluoromethoxy)phenyl]methyl]piperazin-1-yl]-N-(3,3,3-trifluoropropylsulfonyl)pyridazine-3-carboxamide]
ASMS ratio (%) (n = 1): 0.0% | ASMS ratio (%) (n = 2): 0.0%

Molecule: CCOc1cncc(-c2cc(CN3CCN(c4ccc(C(=O)NCC(F)(F)F)nn4)CC3)cc(OCC)c2)c1 [B1K082-01, 6-[4-[[3-Ethoxy-5-(5-ethoxypyridin-3-yl)phenyl]methyl]piperazin-1-yl]-N-(2,2,2-trifluoroethyl)pyridazine-3-carboxamide]
ASMS ratio (%) n = 1 [2]: 0.0% | ASMS ratio (%) n = 2 [2]: 0.0%

Molecule: CCOc1cccc(-c2csc(C(=O)N3CCN(c4ccc(C(=O)NS(=O)(=O)c5ccc(NCCSc6ccccc6)c([N+](=O)[O-])c5)cc4)CC3)c2)c1 [B2Q023-01, 4-[4-[4-(3-Ethoxyphenyl)thiophene-2-carbonyl]piperazin-1-yl]-N-[3-nitro-4-(2-phenylsulfanylethylamino)phenyl]sulfonylbenzamide]
ASMS ratio (%) n = 1 (AS-MS, mixture library, Bcl-2): 0.0% | ASMS ratio (%) n = 2 (AS-MS, mixture library, Bcl-2): 0.0%

Molecule: CCOc1cncc(-c2csc(C(=O)N3CCN(c4ccc(C(=O)NS(=O)(=O)c5ccc(NCCSc6ccccc6)c([N+](=O)[O-])c5)cc4)CC3)c2)c1 [B2Q024-01, 4-[4-[4-(5-Ethoxypyridin-3-yl)thiophene-2-carbonyl]piperazin-1-yl]-N-[3-nitro-4-(2-phenylsulfanylethylamino)phenyl]sulfonylbenzamide]
ASMS ratio (%) n = 1 (AS-MS, mixture library, Bcl-2): 4.5% | ASMS ratio (%) n = 2 (AS-MS, mixture library, Bcl-2): 7.5%

Molecule: CCOc1cncc(-c2cc(CN3CCN(c4ccc(C(=O)NCC56CC7CC(CC(C7)C5)C6)nn4)CC3)cc(C(F)(F)F)c2)c1 [B1A088-01, N-(1-Adamantylmethyl)-6-[4-[[3-(5-ethoxypyridin-3-yl)-5-(trifluoromethyl)phenyl]methyl]piperazin-1-yl]pyridazine-3-carboxamide]
ASMS ratio (%) n = 1 [2]: 18.7% | ASMS ratio (%) n = 2 [2]: −7.1%

More lines, now with the values ahead:

ASMS ratio (%) n = 1 [1]: 3.1% | ASMS ratio (%) n = 2 [1]: 1.4%
Molecule: CCOc1cncc(-c2cc(CN3CCN(c4ccc(C(=O)Nc5ccc(OC)cc5)nn4)CC3)cc(C(F)(F)F)c2)c1 [B1O088-01]

ASMS ratio (%) n = 1 [1]: 5.9% | ASMS ratio (%) n = 2 [1]: −7.6%
Molecule: CCOc1cncc(-c2cc(CN3CCN(c4ccc(C(=O)N(C)CC56CC7CC(CC(C7)C5)C6)cc4)CC3)cc(OC(C)C)c2)c1 [B3A058-01, N-(1-Adamantylmethyl)-4-[4-[[3-(5-ethoxypyridin-3-yl)-5-propan-2-yloxyphenyl]methyl]piperazin-1-yl]-N-methylbenzamide]

ASMS ratio (%) (n = 1): 0.0% | ASMS ratio (%) (n = 2): 0.0%
Molecule: CCOc1cncc(-c2ccc(C(=O)N3CCN(c4ccc(C(=O)NS(=O)(=O)C(C)(C)C)nn4)CC3)cc2F)c1 [B2L006-01, N-tert-Butylsulfonyl-6-[4-[4-(5-ethoxypyridin-3-yl)-3-fluorobenzoyl]piperazin-1-yl]pyridazine-3-carboxamide]

ASMS ratio (%) n = 1 [1]: 10.2% | ASMS ratio (%) n = 2 [1]: −20.0%
Molecule: CCOc1cccc(-c2ccc(C(=O)N3CCN(c4ccc(C(=O)N(C)CC56CC7CC(CC(C7)C5)C6)nn4)CC3)c3ccccc23)c1 [B3A013-01, N-(1-Adamantylmethyl)-6-[4-[4-(3-ethoxyphenyl)naphthalene-1-carbonyl]piperazin-1-yl]-N-methylpyridazine-3-carboxamide]

ASMS ratio (%) (n = 1): −1.5% | ASMS ratio (%) (n = 2): −0.7%
Molecule: CCOc1cncc(-c2ccc(C(=O)N3CCN(c4ccc(C(=O)NS(=O)(=O)CCC(F)(F)F)cc4)CC3)cc2C)c1 [B2N026-01, 4-[4-[4-(5-Ethoxypyridin-3-yl)-3-methylbenzoyl]piperazin-1-yl]-N-(3,3,3-trifluoropropylsulfonyl)benzamide]

ASMS ratio (%) n = 1 (AS-MS, mixture library, Bcl-2): 0.4% | ASMS ratio (%) n = 2 (AS-MS, mixture library, Bcl-2): −0.5%
Molecule: CCOc1cccc(-c2ccccc2CN2CCN(c3ccc(C(=O)N(CC)CC)nn3)CC2)c1 [B4J071-01]

ASMS ratio (%) n = 1 (AS-MS, mixture library, Bcl-2): −0.2% | ASMS ratio (%) n = 2 (AS-MS, mixture library, Bcl-2): −374.2%
Molecule: CCOc1cncc(C#Cc2cncc(C(=O)N3CCN(c4ccc(C(=O)NS(=O)(=O)c5ccc(NCCSc6ccccc6)c([N+](=O)[O-])c5)cc4)CC3)c2)c1 [B2Q032-01, 4-[4-[5-[2-(5-Ethoxypyridin-3-yl)ethynyl]pyridine-3-carbonyl]piperazin-1-yl]-N-[3-nitro-4-(2-phenylsulfanylethylamino)phenyl]sulfonylbenzamide]

ASMS ratio (%) n = 1 [2]: 1.4% | ASMS ratio (%) n = 2 [2]: 0.1%
Molecule: CCOc1cncc(-c2cnn(-c3cc(C(=O)N4CCN(c5ccc(C(=O)NCC(F)(F)F)nn5)CC4)cc(C(F)(F)F)c3)c2)c1 [B1K022-01, 6-[4-[3-[4-(5-Ethoxypyridin-3-yl)pyrazol-1-yl]-5-(trifluoromethyl)benzoyl]piperazin-1-yl]-N-(2,2,2-trifluoroethyl)pyridazine-3-carboxamide]

ASMS ratio (%) n = 1 (AS-MS, mixture library, Bcl-2): 0.0% | ASMS ratio (%) n = 2 (AS-MS, mixture library, Bcl-2): 0.0%
Molecule: CCOc1cccc(-c2cnn(-c3cc(C(=O)N4CCN(c5ccc(C(=O)NS(=O)(=O)c6ccc(NCCSc7ccccc7)c([N+](=O)[O-])c6)nn5)CC4)cc(C(F)(F)F)c3)c2)c1 [B2Q021-01, 6-[4-[3-[4-(3-Ethoxyphenyl)pyrazol-1-yl]-5-(trifluoromethyl)benzoyl]piperazin-1-yl]-N-[3-nitro-4-(2-phenylsulfanylethylamino)phenyl]sulfonylpyridazine-3-carboxamide]

ASMS ratio (%) (n = 1): 0.0% | ASMS ratio (%) (n = 2): 0.0%
Molecule: CCOc1cccc(-c2ccc(C(C)N3CCN(c4ccc(C(=O)NS(=O)(=O)CCC(F)(F)F)cc4)CC3)cc2)c1 (stereo not shown) [B2N097-01, 4-[4-[1-[4-(3-Ethoxyphenyl)phenyl]ethyl]piperazin-1-yl]-N-(3,3,3-trifluoropropylsulfonyl)benzamide]

ASMS ratio (%) n = 1 (AS-MS, mixture library, Bcl-2): 0.0% | ASMS ratio (%) n = 2 (AS-MS, mixture library, Bcl-2): 0.0%
Molecule: CCOc1cncc(-c2cc(OC)c(CN3CCN(c4ccc(C(=O)NS(=O)(=O)CC56CC7CC(CC(C7)C5)C6)nn4)CC3)c(OC)c2)c1 [B2A086-01, N-(1-Adamantylmethylsulfonyl)-6-[4-[[4-(5-ethoxypyridin-3-yl)-2,6-dimethoxyphenyl]methyl]piperazin-1-yl]pyridazine-3-carboxamide]

ASMS ratio (%) (n = 1): 0.0% | ASMS ratio (%) (n = 2): 0.0%
Molecule: CCOc1cccc(-c2ccc(C(C)N3CCN(c4ccc(C(=O)NS(=O)(=O)C(C)(C)C)cc4)CC3)cc2)c1 (stereo not shown) [B2L097-01, N-tert-Butylsulfonyl-4-[4-[1-[4-(3-ethoxyphenyl)phenyl]ethyl]piperazin-1-yl]benzamide]

ASMS ratio (%) (n = 1): 0.0% | ASMS ratio (%) (n = 2): 0.0%
Molecule: CCOc1cncc(-c2ccc(C(C)N3CCN(c4ccc(C(=O)NS(C)(=O)=O)cc4)CC3)c(F)c2)c1 (stereo not shown) [B2I100-01, 4-[4-[1-[4-(5-Ethoxypyridin-3-yl)-2-fluorophenyl]ethyl]piperazin-1-yl]-N-methylsulfonylbenzamide]

ASMS ratio (%) n = 1 [2]: 0.5% | ASMS ratio (%) n = 2 [2]: 1.5%
Molecule: CCCNC(=O)c1ccc(N2CCN(Cc3ccc(-c4cncc(OCC)c4)cc3CC)CC2)nn1 [B1M076-01, 6-[4-[[4-(5-Ethoxypyridin-3-yl)-2-ethylphenyl]methyl]piperazin-1-yl]-N-propylpyridazine-3-carboxamide]
